Key:
[1] = test system: SOX17 (endoderm marker) in RUES2-GLR cells; test: DevTox GLR-Endo assay: decrease in percent SOX17-positive cells (AEID 3094, Sox17_dn); details: for hit call designation (in words): DevTox GLR-Endo prediction against developmental toxicant classification; for Hit Call: Table S2, SOX17-positive cells, cutoff 3*bmad; for DevTox ACC: Table S2, percent SOX17-positive cells; for HIT−CALL: tcpl plot AEID3094, COFF 20.3
Method: (§1) The total test chemical incubation period was 48 h.
(§2) Assay plate controls included non-differentiated pluripotent cells maintained in complete Essential 8 Flex medium (baseline control), endoderm differentiated cells (differentiation control), endoderm differentiated cells treated with DMSO (0.2%) (solvent control), and TGF-ß receptor inhibitor SB431542 (1 µM)-treated cells (developmental toxicant-positive control) (Figure S3). All experiments were completed with a minimum of four biological replicates (n = 4).
(§3) (Supplementary Materials).

RUES2-GLR cells = test: DevTox GLR-Endo assay: decrease in total cell count, cytotoxicity (AEID 3098, CellCount_dn); details: for Emax: Homo sapiens, read-out: Cell Count % Max Inhibition
Method: as §1, §2, §3

[2] = test system: SOX17 (endoderm marker) in RUES2-GLR cells; test: DevTox GLR-Endo assay: increase in percent SOX17-positive cells (AEID 3093, Sox17_up); assay type: cell-based, human; details: for Emax: Homo sapiens; for HIT−CALL: tcpl plot AEID3093, COFF 20.3
Method: as §1, §3

[3] = test system: BRA (mesoderm marker) in RUES2-GLR cells; test: DevTox GLR-Endo assay: increase in percent BRA-positive cells (AEID 3096, Bra_up); assay type: cell-based, human; design: tp (winning model): unit not given here; details: for HIT−CALL: tcpl plot AEID3096, COFF 0.774; for MAX_MEAN: tcpl plot AEID3096, maximum mean response; for MAX_MED: tcpl plot AEID3096, maximum median response
Method: as §1, §3

[4] = cited from earlier work; for Classification: developmental toxicant classification (Teratogen / Non-Teratogen) of reference and training chemicals, ref DOI per chemical: 10.1093/toxsci/kft239, 10.1093/toxsci/kfaa014, 10.1177/026119290203000204, 10.1038/s41598-020-59542-x; for DT Class.: developmental toxicant classification, chemicals common with quickPredict
[5] = test system: SOX2 (ectoderm and pluripotency marker) in RUES2-GLR cells; test: DevTox GLR-Endo assay: increase in percent SOX2-positive cells (AEID 3095, Sox2_up); details: for MAX_MEAN: tcpl plot AEID3095, maximum mean response; for MAX_MED: tcpl plot AEID3095, maximum median response;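 for all read-outs here: cells exposed to test chemicals for 48 h in total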
[6] = Homo sapiens, read-out: DevTox % Max Inhibition
[7] = Homo sapiens, read-out: MAX_MEAN
[8] = Homo sapiens, read-out: MAX_MED
[9] = Homo sapiens, read-out: maximum observed effect level class (% max inhibition)
[10] = tcpl plot AEID3093, maximum mean response, read-out: MAX_MEAN
[11] = tcpl plot AEID3093, maximum median response, read-out: MAX_MED
[12] = Homo sapiens, read-out: ga (winning model)
[13] = Homo sapiens, read-out: tp (winning model)

| Cell Count ACC (RUES2-GLR cells; human, 48 h) | SMILES | hit call designation (in words) [1] | Emax [1, 6] | Emax [1, 7] | Emax [1, 8] | Emax [1, 9] | Hit Call [1] | DevTox ACC ([1]; 48 h exposure) | HIT−CALL [1] | Emax (RUES2-GLR cells) | Emax [2, 10] | Emax [2, 11] | HIT−CALL [2] | HIT−CALL [3] | MAX_MEAN [3] | MAX_MED [3] | Classification [4] | DT Class. [4] | MAX_MEAN [5] | MAX_MED [5] | also measured |
| --- | --- | --- | --- | --- | --- | --- | --- | --- | --- | --- | --- | --- | --- | --- | --- | --- | --- | --- | --- | --- | --- |
| >200 µM | CCCc1cc(=O)[nH]c(=S)[nH]1 | false negative | 16.6% | 14.7% | 16.6% | 0 to 20% | Negative | >200 µM | 0 | 12.9% | 7.44% | 8.97% | 0 | 1 | 0.944 Percent Activity | 0.969 Percent Activity | Teratogen | Pos | 0.595 Percent Activity | 0.601 Percent Activity | – |
| >200 µM | CC(=O)Nc1ccc(O)cc1 [Acetaminophen] | – | 10.5% | 11.3% | 10.5% | – | Negative | >200 µM | 0 | 13.1% | 11.3% | 10.3% | 0 | 0 | 0.829 Percent Activity | 0.865 Percent Activity | – | – | 0.992 Percent Activity | 0.603 Percent Activity | effect on SOX17-positive cells (in words) ([1]; 48 h exposure during directed endoderm differentiation): no observed effect |
| – | C=CC(N)=O [Acrylamide] | – | – | – | – | – | Negative | >200 µM | 0 | – | – | – | 0 | 1 | 1.03 Percent Activity | 1.06 Percent Activity | – | – | 0.47 Percent Activity | 0.417 Percent Activity | DevTox % Max Inhibition ([1]; Table S2, percent SOX17-positive cells relative to DMSO): 9.423%; MAX_MEAN ([1]; tcpl plot AEID3094, maximum mean response): 8.79 Percent Activity; MAX_MED ([1]; tcpl plot AEID3094, maximum median response): 9.42 Percent Activity; Cell Count % Max Inhibition (RUES2-GLR cells; Table S2, cell count relative to DMSO): 16.9643%; MAX_MEAN ([2]; tcpl plot AEID3093, maximum mean response): 6.64 Percent Activity; MAX_MED ([2]; tcpl plot AEID3093, maximum median response): 7.31 Percent Activity; ga (winning model) ([3]; tcpl plot AEID3096, gain parameter of winning curve fit (log concentration, µM axis), hit calls only): −6.98; tp (winning model) ([3]; tcpl plot AEID3096, top of winning curve fit, hit calls only): 0.908 |
| – | CCCCOC(=O)c1ccc(O)cc1 [Butylparaben, 4−Hydroxybenzoic acid butyl ester] | false positive | 102% | 101% | 102% | 80 to 100% | Positive | 34.4685 µM | 1 | 91.8% | 8.67% | 10.2% | 0 | – | – | – | Non-Teratogen | Neg | 4.14 Percent Activity | 4.42 Percent Activity | AC50 [1, 12]: 50.1 µM; Emax [1, 13]: 102%; DevTox-GLR Endo ACC ([1]; activity concentration at cutoff, SOX17-positive cells, 48 h exposure): 34.47 µM; Development Toxicant Classification ([4]; Table S2): Negative; AC50 [5, 12]: 115 µM; Emax [5, 13]: 6.25% |
| – | Oc1cc(O)c2c(c1)OC(c1ccc(O)c(O)c1)C(O)C2 (stereo not shown) [Cianidanol (Catechin)] | – | – | – | – | – | – | – | – | – | – | – | – | – | – | – | Non-Teratogen | – | – | – | – |
| – | COC(=O)c1ccccc1C(=O)OC [Dimethyl Phthalate] | – | 6.7% | 7.41% | 6.7% | – | Negative | >200 µM | 0 | 11.9% | 6.35% | 7.43% | 0 | 0 | 0.821 Percent Activity | 0.835 Percent Activity | – | – | 1.15 Percent Activity | 0.556 Percent Activity | Cell Count ACC (RUES2-GLR cells; Table S2, 48 h exposure): >200 µM; HIT−CALL [5]: 0 |

Reference: PMC9321663, “The DevTox Germ Layer Reporter Platform: An Assay Adaptation of the Human Pluripotent Stem Cell Test” (Toxics, 2022)
